The values that follow come from patent US20220184020A1, “Polyphenols as Modulators of Platelet Function” (Northeastern University, priority 2019, published 2022).

Experiment [1] has as its system platelets. Put plainly: Platelet dense granule release (Chrono-Lume). The class given is cell-based, human. Conditions: induced by CRPXL, TRAP-6 and U46619; RA pre-treatment 1 hour. As for the experimental part: (§1) To validate the predictive power of the developed framework, direct experimental evidence of the predicted mechanistic role of Rosmarinic acid (RA) in VD was sought. […] Therefore, whether RA influenced platelet activation in vitro was evaluated. As platelets can be stimulated through different activation pathways, RA effects can, in principle, occur in any of them. To test these different possibilities, platelets were pretreated with RA and then activated with: 1) glycoprotein VI by collagen or collagen-related peptide (Collagen/CRPXL); 2) protease-activated receptors-1,4 by thrombin receptor activator peptide-6 (TRAP-6); 3) prostanoid thromboxane receptor by the thromboxane A2 analogue (U46619); and 4) P2Y1/12 receptor stimulation by adenosine diphosphate (ADP). […] Platelet aggregation was measured by turbidimetric aggregometry. […] Platelet aggregation was monitored for 6 minutes at 37° C. with a stir speed of 1000 rpm and the maximum extend of aggregation recorded using AGGRO/LINK®8 software. In some cases, dense granule release was simultaneously recorded by supplementing samples with Chrono-Lume® (Chrono-Log®, 395) according to the manufacturer's instructions.

Experiment [2] concerns washed platelets. Put plainly: Platelet total tyrosine phosphorylation (4G10 immunoblot). In kind it is cell-based, human. The following applies: in response to CRPXL, TRAP-6 and U46619; RA-treated platelets. As for the experimental part:
The molecular mechanisms involved in the functional impact of RA on platelets was clarified. The RA target FYN is a protein-tyrosine kinase and platelet activation is coordinated by several kinases that phosphorylate adaptors, enzymes, and cytoskeletal proteins downstream of platelet surface receptors. Given this connection, RA may inhibit platelets function by blocking agonist-induced protein tyrosine phosphorylation.
Human blood collection was performed as previously described in accordance with the Declaration of Helsinki and ethics regulations with Institutional Review Board approval from Brigham and Women's Hospital (P001526). […] Citrated whole blood underwent centrifugation with a slow break (177×g, 20 minutes) and the PRP fraction was acquired for subsequent experiments. For washed platelets, PRP was incubated with 1 μM prostaglandin E1 (Sigma, P5515) and immediately underwent centrifugation with a slow break (1000×g, 5 minutes). Platelet-poor plasma was aspirated, and pellets resuspended in platelet resuspension buffer (PRB; 10 mM Hepes, 140 mM NaCl, 3 mM KCl, 0.5 mM MgCl2, 5 mM NaHCO3, 10 mM glucose, pH 7.4).
Washed platelets were pre-treated with RA for 1 hour, followed by agonist stimulation for 10 minutes. Platelets were lysed on ice with RIPA Lysis Buffer System® (Santa Cruz®, sc-24948) and sample supernatants clarified via centrifugation (14,000 rpm, 5 min, 4° C.). […]

The test system of experiment [3] is A549. Conditions: A549 after treatment with RA; versus all other genes; cited from earlier work.
For experiment [4], the system named is platelets. Put plainly: Platelet aggregation by turbidimetric aggregometry. The class given is cell-based, human. The following applies: PRP pre-treated with RA for 1 hour; collagen 1 μg/mL. As for the experimental part: as §1

Molecules are shown by their SMILES.

For `O=C(/C=C/c1ccc(O)c(O)c1)O[C@H](Cc1ccc(O)c(O)c1)C(=O)O` [rosmarinic acid], in experiment [1], the dense granule secretion result is given as “impairs”. Also, the total tyrosine phosphorylation result in experiment [2] was “dose-dependent reduction”. Also, the “perturbation scores for genes directly regulated by NFE2L2” value in experiment [3] was “higher perturbation scores”. In addition, in experiment [4], the collagen-mediated platelet aggregation entry is reported as “inhibits”.
